Data set [1] has as its system MDA-MB-231 cells. Conditions: read-out: Anti-proliferative active (IC50, μM) MDA-MB-231; cell viability assay for 24 h.
For data set [2], the system named is MDA-MB-468 cells. Conditions: read-out: Anti-proliferative active (IC50, μM) MDA-MB-468; cell viability assay for 24 h.
Data set [3] has as its target T1, CK2 (Homo sapiens, UniProt P68400). Briefly: biochemical. Conditions: read-out: Kinase inhibitory activity (1 μM, %) CK2.
The target of data set [4] is T2, BRD4 (Homo sapiens, UniProt O60885). Briefly: BRD4 inhibition assay. Type of data set: binding.
Another data set relates to MCF-10A cells. Briefly: Cell viability. Type of data set: cell-based.
Data set [5] relates to p-BRD4^S492. Kind of data set: Western blot of p-BRD4 S492, MDA-MB-231 cells. Type of data set: cell-based. To be noted: 0, 2.5, 5, and 10 μM for 24 h. Background: A western blot detects proteins with antibodies after separation by electrophoresis.
The subject of data set [6] is MDA-MB-468 cells. Kind of data set: Autophagy assay. Type of data set: cell-based. To be noted: 5 μM.
For another data set, the system named is CK1. To be noted: read-out: CK1 inhibitory profile (IC50); triplicate, mean ± SD.
The test system of the next data set is MDA-MB-231R cells. Briefly: Antiproliferative activity toward compound 1-resistant MDA-MB-231R cells. To be noted: p < 0.01.
Data set [7] has as its system MDA-MB-468 cells. Kind of data set: Colony formation assay, MDA-MB-468. The format is cell-based. Conditions: 0, 2.5, 5, and 10 μM for 7 days.
In data set [8] the test system is MDA-MB-231 cells. Briefly: Autophagy assay. The format is cell-based. Conditions: 5 μM.
A short description of data set [9]: Pharmacokinetic study in SD rats. The format is in vivo, Sprague–Dawley (SD) rats.
Data set [10] concerns MDA-MB-468 cells. Kind of data set: Annexin-V/PI flow cytometry apoptosis, MDA-MB-468. Type of data set: cell-based. Conditions: 24 h. A general note: In flow cytometry, cells or beads pass a laser one at a time.
A further data set concerns the target CK2α (Homo sapiens, UniProt P68400). Kind of data set: CETSA in MDA-MB-231 cells, CK2α. To be noted: 5 μM, 6 h. The format is cell-based.
Data set [11] deals with MDA-MB-231 cells. Briefly: Colony formation assay, MDA-MB-231. Type of data set: cell-based. Conditions: 0, 2.5, 5, and 10 μM for 7 days.
In data set [12] the test system is p-BRD4^S492. Briefly: Western blot of p-BRD4 S492, MDA-MB-468 cells. Conditions: 0, 2.5, 5, and 10 μM for 24 h. Type of data set: cell-based.
In data set [13] the target is T2, BRD4. Kind of data set: CETSA in MDA-MB-231 cells, BRD4. The format is cell-based. Conditions: 5 μM, 6 h.
The test system of a further data set is MDA-MB-231 xenograft. Briefly: MDA-MB-231 xenograft tumor model. The format is in vivo, nude mice (BALB/c).
In data set [14] the test system is MDA-MB-231 cells. Kind of data set: Annexin-V/PI flow cytometry apoptosis, MDA-MB-231. To be noted: 24 h. The format is cell-based.
Data set [15] has as its target T1, CK2. To be noted: 10 μM.
The mark [16] stands for this setting: 25 and 50 mg/kg, intragastric, 19 days.
[17] abbreviates: intragastric, once a day for 19 days.

Where only a bound is given, the exact number is not on record here.

T1 sequence (P68400 whole entry): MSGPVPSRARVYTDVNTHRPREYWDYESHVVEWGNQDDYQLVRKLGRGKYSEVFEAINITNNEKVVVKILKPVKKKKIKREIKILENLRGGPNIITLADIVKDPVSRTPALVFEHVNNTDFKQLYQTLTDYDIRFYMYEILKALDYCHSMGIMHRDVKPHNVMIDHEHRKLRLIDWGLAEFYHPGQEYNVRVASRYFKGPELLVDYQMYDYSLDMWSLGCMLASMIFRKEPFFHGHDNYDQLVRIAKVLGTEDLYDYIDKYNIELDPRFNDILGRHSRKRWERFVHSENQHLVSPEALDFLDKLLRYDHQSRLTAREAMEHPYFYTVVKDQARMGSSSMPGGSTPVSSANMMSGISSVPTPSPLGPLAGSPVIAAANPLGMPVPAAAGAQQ
CK2α, sequence (P68400 whole entry): as above

The IC50 is the concentration that gives 50% inhibition. Take “N-(3-Chloro-4-(4-methylpiperazin-1-yl)phenyl)-2-(4-(6-methoxy-4-oxo-1,4-dihydroquinazolin-2-yl)phenoxy)acetamide [Compound 44k]”: the IC50 in the data set with MDA-MB-231 cells [1] was 14.6 ± 0.77 µM; with MDA-MB-468 cells [2] it was 16.4 ± 0.85 µM.
As to “2-(4-(5,7-Dimethoxy-4-oxo-1,4-dihydroquinazolin-2-yl)-2,6-dimethylphenoxy)-N-morpholinoacetamide [Compound 42b]”, the IC50 stood at 20.6 ± 0.62 µM in the data set on MDA-MB-231 cells [1] and 18.5 ± 1.23 µM in the data set on MDA-MB-468 cells [2].
Taken in the same sequence, the figures for “2-(4-(5,7-Dimethoxy-4-oxo-1,4-dihydroquinazolin-2-yl)-phenoxy)-N-(4-methylpiperazin-1-yl)acetamide [Compound 42g]” were 12.8 ± 1.72 µM and 13.7 ± 0.23 µM.
The matching figures for “2-(4-(5,7-Dimethoxy-4-oxo-1,4-dihydroquinazolin-2-yl)-phenoxy)-N-morpholinoacetamide [Compound 42a]”: 14.7 ± 1.55 µM and 12.5 ± 0.87 µM.
For the molecule “N-(3-Chloro-4-(4-methylpiperazin-1-yl)phenyl)-2-(4-(7-methyl-4-oxo-1,4-dihydroquinazolin-2-yl)phenoxy)acetamide [Compound 44n]”, the IC50 amounted to 17.4 ± 0.56 µM in the data set with MDA-MB-231 cells [1] and 16.2 ± 1.83 µM in the data set with MDA-MB-468 cells [2].
Take “N-(3-Chloro-4-(4-methylpiperazin-1-yl)phenyl)-2-(4-(6-chloro-4-oxo-1,4-dihydroquinazolin-2-yl)phenoxy)acetamide [Compound 44l]”: the values for the IC50 in the data set with MDA-MB-231 cells [1] and in the data set with MDA-MB-468 cells [2] were 14.4 ± 0.58 µM and 15.3 ± 0.72 µM, respectively.
`COc1cc(OC)c2c(=O)[nH]c(-c3cc(C)c(OCC(=O)Nc4nc5ccccc5[nH]4)c(C)c3)nc2c1` [Compound 42j, N-(1H-Benzo[d]imidazol-2-yl)-2-(4-(5,7-dimethoxy-4-oxo-1,4-dihydroquinazolin-2-yl)-2,6-dimethylphenoxy)acetamide]: the inhibition at 1 µM on CK2 [3] came to 25.6 ± 6.57%.
Turning to “N-(3-Chloro-4-(4-methylpiperazin-1-yl)phenyl)-2-(4-(6-fluoro-4-oxo-1,4-dihydroquinazolin-2-yl)phenoxy)acetamide [Compound 44j]”, the IC50 was found to be 6.94 ± 0.68 µM with MDA-MB-231 cells [1] and 7.51 ± 1.13 µM in the data set with MDA-MB-468 cells [2].
“N-(3-Chloro-4-(4-methylpiperazin-1-yl)phenyl)-2-(4-(7-chloro-4-oxo-1,4-dihydroquinazolin-2-yl)phenoxy)acetamide [Compound 44m]”: the IC50 in the data set on MDA-MB-231 cells [1] stood at 5.21 ± 0.82 µM; with MDA-MB-468 cells [2], 6.23 ± 0.55 µM.
In the case of `Cc1sc2c(c1C)C(c1ccc(Cl)cc1)=N[C@@H](CC(=O)OC(C)(C)C)c1nnc(C)n1-2` [Compound 1, JQ1, reference compound], the inhibition at 1 µM at BRD4 [4] (read-out: Kinase inhibitory activity (1 μM, %) BRD4) is 97 ± 1.32%.
`COc1cc(OC)c2c(=O)[nH]c(-c3ccc(OCC(=O)Nc4ccc(N5CCN(C)CC5)c(Cl)c4)cc3)nc2c1` [Compound 44e, N-(3-Chloro-4-(4-methylpiperazin-1-yl)phenyl)-2-(4-(5,7-dimethoxy-4-oxo-1,4-dihydroquinazolin-2-yl)phenoxy)acetamide]: in the data set on MCF-10A cells, the “toxicity to the normal breast cell line MCF-10A” value is given as “did not have obvious toxicity”. The “level of p-BRD4^S492” value in the data set with p-BRD4^S492 [5] and in the data set with p-BRD4^S492 [12] was “dose-dependently downregulated” in each case. The autophagy induction entry with MDA-MB-468 cells [6] and with MDA-MB-231 cells [8] was “significantly induced autophagy” throughout. Moreover, in the data set on CK1, the IC50 is above 10 µM. Further, the “anticancer activity against compound 1-resistant cells” value with MDA-MB-231R cells is “able to alleviate drug resistance of 1”. Besides, the colony formation entry with MDA-MB-468 cells [7] was “dose-dependently suppressed growth and reduced the number of colonies”; in the data set on MDA-MB-231 cells [11], “dose-dependently suppressed growth and reduced the number of colonies”. The CL in data set [9] (iv 1 mg/kg) was 57.4 ± 1.3 (mL/min)/kg. In data set [9] (po 10 mg/kg), the “time at which the highest concentration was observed” value came out at 5.14 ± 0.71 h. For the same molecule, the “apoptosis (Annexin-V/PI)” value with MDA-MB-468 cells [10] and with MDA-MB-231 cells [14] was “dose-dependently induced apoptosis” each time. In addition, the “thermal stability of CK2α (CETSA)” value at CK2α is listed as “improved the thermal stability”. The “tumor growth inhibition (in words)” value with MDA-MB-468 xenograft (setting [16]) and in the data set on MDA-MB-231 xenograft (setting [16]) was “dose-dependent tumor growth inhibition” throughout. The “HE staining of heart, liver, spleen, lung, and kidney tissues” value in the data set on MDA-MB-468 xenograft (after 19 days of treatment) and in the data set with MDA-MB-231 xenograft (after 19 days of treatment) was “No significant morphologic or structural changes” each time. For the same molecule, the “mouse body weight and death” value is “No significant changes in mouse body weight and death” in the data set with MDA-MB-468 xenograft (setting [17]); “No significant changes in mouse body weight and death” with MDA-MB-231 xenograft (setting [17]). For the same molecule, at BRD4 [13], the “thermal stability of BRD4 (CETSA)” value is reported as “improved the thermal stability”. The “Ki-67 immunohistochemical staining in tumor tissue” value in the data set on MDA-MB-231 xenograft (25 or 50 mg/kg) was “significantly inhibit the proliferation”. In the data set with MDA-MB-231 xenograft (25 or 50 mg/kg, compared with control group), the “expression of c-Myc and p-AKT^S129 in xenograft tumor tissues (IHC)” value is listed as “significantly reduced”.
For the molecule `COc1cc(OC)c2c(=O)[nH]c(-c3ccc(OCC(=O)O)cc3)nc2c1` [Compound 26, 2-(4-(5,7-Dimethoxy-4-oxo-1,4-dihydroquinazolin-2-yl)-phenoxy)acetic Acid], the “inhibitory ratio on BRD4” value at BRD4 [4] (10 μM) was 63%. The “inhibitory ratio on CK2” value at CK2 [15] is recorded as 45%.
“6-Methoxy-2-(2-methoxyphenyl)-4H-chromen-4-one [Compound 33c]”: the IC50 with MDA-MB-231 cells [1] and in the data set with MDA-MB-468 cells [2] was above 50 µM in each case.

(Values after PMC10118286 (Journal of medicinal chemistry, 2021).)
